# Assay results taken from PMC2947513, “Identification of an Archaeal Presenilin-Like Intramembrane Protease” (PLoS ONE, 2010).
# Molecular target: T1, MCMJR1 (Methanoculleus marisnigri, UniProt A3CWV0)
# T1 construct: gene Memar_1924; full-length; N-terminal His6-SUMO fusion cut off with ULP1; expressed in E. coli Rosetta (DE3) pLysS; detergent-purified; catalytic D162 and D220; eight predicted TMDs
# T1 sequence (A3CWV0 1-301): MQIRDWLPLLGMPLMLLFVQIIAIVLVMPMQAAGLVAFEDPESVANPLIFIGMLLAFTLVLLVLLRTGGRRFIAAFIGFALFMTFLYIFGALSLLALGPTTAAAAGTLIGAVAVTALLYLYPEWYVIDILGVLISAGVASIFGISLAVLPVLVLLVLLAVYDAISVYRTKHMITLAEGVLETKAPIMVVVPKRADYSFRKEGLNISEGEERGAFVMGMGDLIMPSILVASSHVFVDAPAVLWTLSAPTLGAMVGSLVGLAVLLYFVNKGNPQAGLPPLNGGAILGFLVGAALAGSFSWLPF
# Test: cleavage of Gurken-TMD (MBP chimera), anti-MBP western blot with densitometry
# Assay type: biochemical
# Conditions: transition-state analog; 0.8 µM enzyme, 2 h pre-incubation at 37 °C, 0.8 µM Gurken-TMD, 8 h; 31C at 10-100 µM; IC50 not given
smiles,measurement,value
COC(=O)C(NC(=O)C(CC(C)C)NC(=O)N(Cc1ccccc1)CC(O)C(Cc1ccccc1)NC(=O)OC(C)(C)C)C(C)C (stereo not shown) [31C],complete inhibition of activity,~ 100 µM
